# According to patent US11278514B2, “Composition compromising dunnione as effective ingredient for prevention or alleviation of hair loss” (NADIANBIO LTD., priority 2018, dated 2022):
# Entries after “also recorded” stand apart in the source; their conditions may differ. Read-outs that look alike come from different tables or passages of the source.
# Tests used:
# NAD^+ = assay: NAD+ and NADH concentrations and NAD+/NADH ratio in skin tissue, cyclophosphamide alopecia model; type: in vivo, mice; details: cyclophosphamide plus dunnione vs cyclophosphamide
# Protocol: Specifically, in order to quantify the NAD^+ and NADH concentrations in the skin tissue obtained from the animal model prepared by the method in Example 2, the skin tissue was tested with the analysis kit (E2ND-100) of BioAssay Systems according to the instruction manual, and then the NAD^+/NADH ratio was analyzed. First, 10 mg of skin tissue was collected from the animal model. Then, 100 μl of extraction solution for NAD^+ or NADH was added to the skin tissue and homogenized. Then, the homogenized skin tissue was subjected to heat treatment at 60° C. for 5 minutes. Neutralization was performed by addition of the same volume of the extraction solution, and then centrifugation was performed at 14,000 rpm for 5 minutes to obtain the supernatant. Then, a developing reagent was added to the supernatant. The NAD^+ and NADH concentrations were determined from the absorbance measured at a wavelength of 565 nm, and the NAD^+/NADH ratio was analyzed.
# [1] = system: C57BL/6 mice having alopecia caused by docetaxel, adriamycin, and cyclophosphamide; assay: Visual observation of skin in animal model having alopecia caused by 6×TAC; type: in vivo
# Source text: In 9-week-old C57BL/6 mice, the hair on the dorsal skin area was first removed with an animal hair clipper, and then a depilatory (Niclean cream, manufactured by Ildong Pharmaceutical Co., Ltd.) was applied to the dorsal skin to completely remove the hair.
# Docetaxel (DTX), adriamycin (ADR), and cyclophosphamide (CYP) were used as anticancer drugs, and combined administration of the three anticancer drugs was designated as TAC. In addition, information was obtained from the National Comprehensive Cancer Network (NCCN) for the single concentration (designated as 1× concentration) of each anticancer drug which is actually clinically applied to cancer patients. As described below, for the experimental group to be treated with anti-cancer drugs, the mice were treated with docetaxel, adriamycin, and cyclophosphamide at 6× concentration (11.58 mg/kg, 9.24 mg/kg, and 76.8 mg/kg, respectively). When treatment with the anticancer drugs is performed, the anticancer drugs were injected intraperitoneally at time intervals of 1 hour so that each of the anticancer drugs can be sufficiently absorbed.
# [2] = system: C57BL/6 mice having alopecia caused by cyclophosphamide
# Protocol: The day, on which the mice were hair-removed in Example 1, was set as day 0, and the animals were divided into the following groups: normal group (Control, 4 animals) in which only PBS is intraperitoneally injected on day 9; cyclophosphamide group (CYP, 6 animals) in which cyclophosphamide (150 mg/kg) is intraperitoneally injected on day 9; combination-treated group (CYP+Dunnione, 6 animals) in which dunnione is orally administered on a daily basis starting from 3 days prior to treatment with cyclophosphamide; and dunnione alone-treated group (Dunnione, 4 animals) in which only dunnione (20 mg/kg) is administered (FIG. 1).
# The day, on which the mice were hair-removed in Example 1, was set as day 0, and the mice in each of the experimental groups described in Example 2 were sacrificed on day 18. Subsequently, the mouse dorsal skin was dissected parallel or perpendicular to the vertebral line, and removed. The removed skin was fixed with a Bouin's solution for 12 hours, subjected to dehydration, and embedded in paraffin. Then, the resulting product was prepared into 5-μm sections. The prepared sections were subjected to hematoxylin and eosin (H&E) staining, and histological changes in the skin in each experimental group were observed.
# NQO1 knockout mice [3] = assay: Histological changes in skin (H&E) in NQO1 knockout mice treated with 6×TAC; type: in vivo; details: day 18
# Protocol: The day, on which the NQO1 knockout mice were hair-removed according to Example 1, was set as day 0, and the mice in each of the experimental groups described in Example 5 were sacrificed on day 18. Subsequently, the mouse dorsal skin was dissected parallel or perpendicular to the vertebral line, and removed. The removed skin was fixed with a Bouin's solution for 12 hours, subjected to dehydration, and embedded in paraffin. Then, the resulting product was prepared into 5-μm sections. The prepared sections were subjected to hematoxylin and eosin (H&E) staining, and histological changes in the skin in each experimental group were observed.
# p53 = assay: Acetylation of p53 in skin tissue (western blot), cyclophosphamide alopecia model; type: in vivo, mice; details: cyclophosphamide plus dunnione; day 18
# Protocol: (§1) In the cyclophosphamide-induced alopecia mouse model of Example 2, expression level of Sirt1 protein and acetylation reaction of the target proteins thereof, NF-κB p65 and p53, were identified on the skin tissue obtained on day 18 after hair removal.
# (§2) Specifically, 10 mg of the skin tissue obtained from the animal model prepared by the method in Example 2 was homogenized by addition of a lysis solution (RIPA lysis buffer). Then, centrifugation was performed at 14,000 rpm for 10 minutes. The protein concentration in the supernatant was quantified with a bovine serum albumin (BSA) standard solution. The skin tissue protein was used in an amount of 40 μg per test solution. First, the homogenized skin tissue was mixed with a sample solution (Bio-Rad, 161-0747) and inactivated at a temperature of 95° C. for 5 minutes. Thereafter, the protein was separated by a sodium dodecyl sulfate-polyacrylamide gel electrophoresis (SDS-PAGE) method, and then transferred to a nitrocellulose membrane. Treatment with anti-Sirt1 antibody (Abcam), anti-acetyl NF-κB p65 antibody and anti-acetyl p53 antibody (Cell Signaling Technologies), and anti-β-actin antibody (Santa Cruz Biotechnology) as primary antibodies were performed, and reaction was allowed to proceed. […]
# NQO1 knockout mice [4] = system: NQO1 knockout mice
# Protocol: The day, on which the NQO1 knockout mice were hair-removed according to Example 1, was set as day 0, and the animals were divided into the following experimental groups and used for experiments: normal group (Control, 4 animals) in which only PBS is intraperitoneally injected on day 9; cyclophosphamide group (CYP, 6 animals) in which cyclophosphamide (150 mg/kg) is intraperitoneally injected on day 9; combination-treated group (CYP+Dunnione, 6 animals) in which dunnione is orally administered on a daily basis starting from 3 days prior to treatment with cyclophosphamide; and dunnione alone-treated group (Dunnione, 4 animals) in which only dunnione (20 mg/kg) is administered (FIG. 1).
# intracellular NAD^+ = details: reported to date (Pandit et al. 2015; Shen et al. 2017); cited from earlier work
# [5] = system: C57BL/6 mice having alopecia caused by docetaxel, adriamycin, and cyclophosphamide; assay: Histological changes in skin (H&E) in animal model having alopecia caused by 6×TAC; type: in vivo; details: day 18
# Protocol: The day, on which the mice were hair-removed in Example 1, was set as day 0, and the mice in each of the experimental groups described in Example 4 were sacrificed on day 18. Subsequently, the mouse dorsal skin was dissected parallel or perpendicular to the vertebral line, and removed. The removed skin was fixed with a Bouin's solution for 12 hours, subjected to dehydration, and embedded in paraffin. Then, the resulting product was prepared into 5-μm sections. The prepared sections were subjected to hematoxylin and eosin (H&E) staining, and histological changes in the skin in each experimental group were observed.
# Sirt1 protein = assay: Expression level of Sirt1 protein in skin tissue (western blot), cyclophosphamide alopecia model; type: in vivo, mice; details: cyclophosphamide plus dunnione; day 18
# Protocol: as §1, §2
# [6] = 6×TAC+Dunnione combination-treated group
smiles,measurement,setting,value
"CC1OC2=C(C(=O)C(=O)c3ccccc32)C1(C)C (stereo not drawn) [dunnione, 2,3-dihydro-2,3,3-trimethyl-naphtho[1,2-b]furan-4,5-dione]",NAD^+/NADH ratio in skin tissue,NAD^+; day 18,increases
same,NAD^+ concentration in skin tissue,NAD^+; day 18 after hair removal,increases
same,"hair growth, visual observation of skin","[1]; 6×TAC+Dunnione combination-treated group, day 18",hair grew overall so that the skin is full of hair and looks black
same,"hair growth, visual observation of skin","[1]; 6×TAC+Dunnione: 6×TAC i.p. day 9, dunnione oral daily from 3 days prior, day 14",began to grow more hair than the 6×TAC alone-treated group
same,hair loss,[1]; TAC plus dunnione combination-treated group compared with TAC alone-treated group,inhibited hair loss
same,"hair growth, visual observation of skin","[1]; dunnione alone, day 18",hair grew overall so that the skin is full of hair and looks black
same,development of hair follicles and inner root sheaths (histology),"[2]; CYP+Dun combination-treated group, day 18 after hair removal",suppressed falling-off of hair follicles and inner root sheaths; also recorded: the hair follicles and the inner root sheaths have well developed overall
same,number of growing hairs (histology),"[2]; CYP+Dun compared with cyclophosphamide alone-treated group, day 18",increased number of hairs
same,development of hair follicles and inner root sheaths (histology),NQO1 knockout mice [3]; [6],the hair follicles have poorly developed or the inner root sheaths have insufficiently developed; also recorded: falling-off of hair follicles and inner root sheaths in the skin tissue progresses
same,development of hair follicles and inner root sheaths (histology),NQO1 knockout mice [3]; dunnione alone,the hair follicles and inner root sheaths have well developed overall
same,acetylation of p53 in skin tissue,p53,suppresses
same,"hair growth, visual observation of skin","NQO1 knockout mice [4]; CYP+Dun combination-treated group, until day 18",hair hardly grew until day 18 after hair removal; also recorded: progression of hair loss to a level similar to the cyclophosphamide alone-treated group
same,"start of hair growth, visual observation of skin",NQO1 knockout mice [4]; dunnione alone (20 mg/kg),hair began to grow starting from day 12 after hair removal
same,"hair growth, visual observation of skin","NQO1 knockout mice [4]; dunnione alone (20 mg/kg), day 18",hair grew overall on day 18 so that the skin is full of hair and looks black
same,intracellular NAD^+,intracellular NAD^+,increase
same,development of hair follicles and inner root sheaths (histology),[5]; [6],the hair follicles and the inner root sheaths have well developed overall; also recorded: suppressed falling-off of hair follicles and inner root sheaths
same,number of growing hairs (histology),[5]; 6×TAC+Dunnione compared with 6×TAC alone-treated group,increased number of hairs
same,expression level of Sirt1 protein in skin tissue,Sirt1 protein,increases; also recorded: normalizes
